According to ChEMBL document CHEMBL4382234, “Fluoroquinolone-isatin hybrids and their biological activities” (Eur J Med Chem, 2019):
Values after ≈ are worked out from the molar mass of the structure shown.

How the values were obtained:
Assay type in all cases: functional
[1] = tested on: Mycolicibacterium smegmatis; assay: Antimycobacterial activity against Mycobacterium smegmatis CMCC 93202 after 72 hrs by double dilution method; settings: CMCC 93202, 72 h
[2] = tested on: Mycobacterium tuberculosis; assay: Antimycobacterial activity against Mycobacterium tuberculosis H37Rv ATCC 27294 by rapid direct susceptibility test
[3] = tested on: Mycobacterium tuberculosis; assay: Antimycobacterial activity against Mycobacterium tuberculosis H37Rv after 3 to 7 days by rapid direct susceptibility test
[4] = tested on: Mycobacterium tuberculosis; assay: Antitubercular activity against Mycobacterium tuberculosis H37Rv by microplate alamar blue assay

SMILES | MIC [1] | MIC [2] | MIC [3] | MIC [4]
COc1c(N2C[C@@H]3CCCN(CN4C(=O)/C(=N\NC(N)=O)c5cc(F)ccc54)[C@@H]3C2)c(F)cc2c(=O)c(C(=O)O)cn(C3CC3)c12 | 0.39 to 16 µg/mL (≈ 0.614 to 25.2 µM) | 0.39 to 16 µg/mL (≈ 0.614 to 25.2 µM) | – | –
COc1c(N2C[C@@H]3CCCN(CCN4C(=O)/C(=N\NC(N)=O)c5ccccc54)[C@@H]3C2)c(F)cc2c(=O)c(C(=O)O)cn(C3CC3)c12 | 0.39 to 16 µg/mL (≈ 0.617 to 25.3 µM) | 0.39 to 16 µg/mL (≈ 0.617 to 25.3 µM) | – | –
Cc1ccc2c(c1)/C(=N\O)C(=O)N2CCCN1CCN(c2cc3c(cc2F)c(=O)c(C(=O)O)cn3C2CC2)CC1 | – | – | 0.1 to 64 µg/mL (≈ 0.183 to 117 µM) | –
COc1c(N2C[C@@H]3CCCN(Cc4cn(CCN5C(=O)/C(=N/NC(N)=O)c6cc(Br)ccc65)nn4)[C@@H]3C2)c(F)cc2c(=O)c(C(=O)O)cn(C3CC3)c12 | – | – | 0.1 to 0.78 µg/mL (≈ 0.126 to 0.985 µM) | –
CCO/N=C1\C(=O)N(CCN2CCC[C@H]3CN(c4c(F)cc5c(=O)c(C(=O)O)cn(C6CC6)c5c4OC)C[C@H]32)c2ccc(F)cc21 | 0.39 to 16 µg/mL (≈ 0.614 to 25.2 µM) | 0.39 to 16 µg/mL (≈ 0.614 to 25.2 µM) | – | –
NC(=O)N/N=C1/C(=O)N(CCCN2CCN(c3cc4c(cc3F)c(=O)c(C(=O)O)cn4C3CC3)CC2)c2ccccc21 | – | – | 0.1 to 64 µg/mL (≈ 0.174 to 111 µM) | –
COc1c(N2C[C@@H]3CCCN(CCN4C(=O)/C(=N\O)c5cc(F)ccc54)[C@@H]3C2)c(F)cc2c(=O)c(C(=O)O)cn(C3CC3)c12 | 0.39 to 16 µg/mL (≈ 0.642 to 26.3 µM) | 0.39 to 16 µg/mL (≈ 0.642 to 26.3 µM) | – | –
COc1c(N2C[C@@H]3CCCN(Cc4cn(CCN5C(=O)C(=O)c6ccccc65)nn4)[C@@H]3C2)c(F)cc2c(=O)c(C(=O)O)cn(C3CC3)c12 | – | – | 0.1 to 0.78 µg/mL (≈ 0.153 to 1.19 µM) | –
COc1c(N2C[C@@H]3CCCN(CCN4C(=O)C(=O)c5ccccc54)[C@@H]3C2)c(F)cc2c(=O)c(C(=O)O)cn(C3CC3)c12 | 0.39 to 16 µg/mL (≈ 0.679 to 27.8 µM) | 0.39 to 16 µg/mL (≈ 0.679 to 27.8 µM) | – | –
CCn1cc(C(=O)O)c(=O)c2cc(F)c(N3CCN(CN4C(=O)/C(=N\c5ncc(Cc6cc(OC)c(OC)c(OC)c6)c(N)n5)c5cc(C)ccc54)C(C)C3)c(F)c21 (centres undefined) | – | – | – | 0.78 to 3.13 µg/mL (≈ 0.979 to 3.93 µM)
CCO/N=C1\C(=O)N(CN2CCC[C@H]3CN(c4c(F)cc5c(=O)c(C(=O)O)cn(C6CC6)c5c4OC)C[C@H]32)c2ccccc21 | 0.39 to 16 µg/mL (≈ 0.646 to 26.5 µM) | 0.39 to 16 µg/mL (≈ 0.646 to 26.5 µM) | – | –
NNC(=O)c1ccncc1 [ISONIAZID] | – | – | > 128 µg/mL | 0.05 µg/mL (≈ 0.365 µM)
CCn1cc(C(=O)O)c(=O)c2cc(F)c(N3CCN(CN4C(=O)/C(=N\c5ncc(Cc6cc(OC)c(OC)c(OC)c6)c(N)n5)c5cc(Cl)ccc54)C(C)C3)c(F)c21 (centres undefined) | – | – | – | 0.78 to 3.13 µg/mL (≈ 0.954 to 3.83 µM)
COc1c(N2C[C@@H]3CCCN(CN4C(=O)/C(=N\O)c5cc(F)ccc54)[C@@H]3C2)c(F)cc2c(=O)c(C(=O)O)cn(C3CC3)c12 | 0.39 to 16 µg/mL (≈ 0.657 to 27 µM) | 0.39 to 16 µg/mL (≈ 0.657 to 27 µM) | – | –
COc1c(N2C[C@@H]3CCCN(Cc4cn(CCN5C(=O)/C(=N/O)c6cc(Br)ccc65)nn4)[C@@H]3C2)c(F)cc2c(=O)c(C(=O)O)cn(C3CC3)c12 | – | – | 0.1 to 0.78 µg/mL (≈ 0.133 to 1.04 µM) | –
COc1c(N2C[C@@H]3CCCN(CCN4C(=O)/C(=N\O)c5ccccc54)[C@@H]3C2)c(F)cc2c(=O)c(C(=O)O)cn(C3CC3)c12 | 0.39 to 16 µg/mL (≈ 0.661 to 27.1 µM) | 0.39 to 16 µg/mL (≈ 0.661 to 27.1 µM) | – | –
CCn1cc(C(=O)O)c(=O)c2cc(F)c(N3CCN(CN4C(=O)/C(=N\c5ncc(Cc6cc(OC)c(OC)c(OC)c6)c(N)n5)c5cc(F)ccc54)CC3)cc21 | – | – | – | 0.78 to 3.13 µg/mL (≈ 1.01 to 4.07 µM)
O=C(O)c1cn(C2CC2)c2cc(N3CCN(CCCN4C(=O)/C(=N/O)c5ccccc54)CC3)c(F)cc2c1=O | – | – | 0.1 to 64 µg/mL (≈ 0.187 to 120 µM) | –
CO[C@H]1/C=C/O[C@@]2(C)Oc3c(C)c(O)c4c(O)c(c(/C=N/N5CCN(C)CC5)c(O)c4c3C2=O)NC(=O)/C(C)=C\C=C\[C@H](C)[C@H](O)[C@@H](C)[C@@H](O)[C@@H](C)[C@H](OC(C)=O)[C@@H]1C [RIFAMPIN] | – | – | 0.25 to 0.39 µg/mL (≈ 0.304 to 0.474 µM) | 0.125 µg/mL (≈ 0.152 µM)
CCO/N=C1/C(=O)N(CCn2cc(CN3CCC[C@H]4CN(c5c(F)cc6c(=O)c(C(=O)O)cn(C7CC7)c6c5OC)C[C@H]43)nn2)c2ccc(Br)cc21 | – | – | 0.1 to 0.78 µg/mL (≈ 0.129 to 1 µM) | –
CCO/N=C1\C(=O)N(CN2CCC[C@H]3CN(c4c(F)cc5c(=O)c(C(=O)O)cn(C6CC6)c5c4OC)C[C@H]32)c2ccc(F)cc21 | 0.39 to 16 µg/mL (≈ 0.627 to 25.7 µM) | 0.39 to 16 µg/mL (≈ 0.627 to 25.7 µM) | – | –
CO/N=C1\C(=O)N(CCN2CCC[C@H]3CN(c4c(F)cc5c(=O)c(C(=O)O)cn(C6CC6)c5c4OC)C[C@H]32)c2ccccc21 | 0.39 to 16 µg/mL (≈ 0.646 to 26.5 µM) | 0.39 to 16 µg/mL (≈ 0.646 to 26.5 µM) | – | –
COc1c(N2C[C@@H]3CCCN(Cc4cn(CCN5C(=O)C(=O)c6cc(Br)ccc65)nn4)[C@@H]3C2)c(F)cc2c(=O)c(C(=O)O)cn(C3CC3)c12 | – | – | 0.1 to 0.78 µg/mL (≈ 0.136 to 1.06 µM) | –
CCO/N=C1/C(=O)N(CCn2cc(CN3CCC[C@H]4CN(c5c(F)cc6c(=O)c(C(=O)O)cn(C7CC7)c6c5OC)C[C@H]43)nn2)c2ccccc21 | – | – | 0.1 to 0.78 µg/mL (≈ 0.143 to 1.12 µM) | –
NC(=S)N/N=C1/C(=O)N(CCCN2CCN(c3cc4c(cc3F)c(=O)c(C(=O)O)cn4C3CC3)CC2)c2ccccc21 | – | – | 0.1 to 64 µg/mL (≈ 0.169 to 108 µM) | –
COc1c(N2C[C@@H]3CCCN(Cc4cn(CCN5C(=O)/C(=N/NC(N)=O)c6ccccc65)nn4)[C@@H]3C2)c(F)cc2c(=O)c(C(=O)O)cn(C3CC3)c12 | – | – | 0.1 to 0.78 µg/mL (≈ 0.14 to 1.09 µM) | –
NC[C@H]1O[C@H](O[C@H]2[C@H](O)[C@@H](O[C@H]3O[C@H](CO)[C@@H](O)[C@H](N)[C@H]3O)[C@H](N)C[C@@H]2N)[C@H](O)[C@@H](O)[C@@H]1O [KANAMYCIN] | – | – | – | 5 µg/mL (≈ 10.3 µM)
